Tested on: 885512-296-R-J2-PDC complex spheroid growth, % test/control
Test: Anticancer human tumor 885512-296-R-J2-PDC patient-derived breast carcinoma cell line growth inhibition [Asc]
Details: for IC50: curve of first compound; for viability, T/C: stronger effect = lower value
Method: Multicellular complex tumor spheroid response to apoptosis pathway targeting inhibitors Alrizomadlin, Pelcitoclax, and Dasminapant in combination with a variety of drugs and investigational agents in selected tumor cell lines
The MDM2 inhibitor alrizomadlin, the Bcl-2/Bcl-xL inhibitor pelcitoclax, and the IAPs inhibitor dasminapant were evaluated both individually and in combination with standard of care and investigational anticancer small molecules within a complex spheroid model of solid tumors. . Complex spheroids include a stromal component modeled by human endothelial cells (HUVEC) and fibroblasts modeled by human mesenchymal stem cells (MSCs). The concentration ranges selected for each drug and investigational agent were based upon clinically achievable concentrations if the clinical Cmax of the agent was known.
Compounds. The drugs and investigational agents: alrizomadlin (APG-115; NSC831270), pelcitoclax (APG-1252; NSC835773), dasminapant (APG-1387;NSC834197), TAK-243 (NSC785004), copanlisib (NSC809693), olaparib (NSC753686), talazoparib (NSC767125), cobimetinib (NSC 768068), eltanexor (KPT-8602, NSC 794443), abemaciclib (NSC 768073), sotorasib (NSC818433), adagrasib (NSC 831453), MRTX-1133 (NSC 836407), Iadademestat (ORY1001, NSC 806812), and RMC-4630 (NSC839698), were obtained from the NCI Developmental Therapeutics Program Chemical Repository. The FDA-approved anticancer drug set is available from the Developmental Therapeutics Program at https://dtp.cancer.gov/organization/dscb/obtaining/available plates.htm. […] The stock solutions were prepared in dimethyl sulfoxide (DMSO, Sigma-Aldrich, St. Louis, MO, cat. D2650) at 800-fold the tested concentration and stored at -70 degrees C prior to their use. All drugs and investigational agents were tested over a range starting from a high concentration at or near the clinical Cmax and decreasing in half-log increments. If the clinical Cmax for an agent had not been determined, the highest concentration tested was 10 microM.
The patient-derived cancer (PDC) cell lines include five colon adenocarcinomas: 186277-243-T-J2-PDC, 616215-338-R-J1-PDC, 439559-082-T-J2-PDC, 463943-066-T-J2-PDC, and 519858-162-T-J1-PDC; three pancreatic carcinomas: 323965-272-R-J2-PDC, 521955-158-R6-J3-PDC, and 521955-158-R2-J5-PDC; two uterine sarcomas: 327498-152-R-J2-PDC and 993429-296-R-J1-PDC; two rhabdomyosarcomas: 755483-174-R-J1-PDC and 772245-204-R-J1-PDC; two soft tissue sarcomas: 126254-015-R-J1-PDC and 494315-158-R-J1-PDC; two malignant fibrous histiocytomas: 317291-083-R-J1-PDC and 596521-263-R-J1-PDC; two breast carcinomas: 171881-019-R-J1-PDC and 885512-296-R-J2-PDC; and one ovarian carcinoma: 6556581-035-R-J-PDC were obtained from the NCI PDMR, (https://pdmr.cancer.gov). The established cell lines HSSY-2 synovial sarcoma (RRID:CVCL 8719), SYO-1 synovial sarcoma (RRID:CVCL_7146), MPNST malignant peripheral neural sheath tumor were obtained from the Sloan Kettering Institute. The following established cell lines were purchased from the American Type Culture Collection (ATCC, Manassas, VA), Sor the received from the NCI repository:, PANC-1 pancreatic carcinoma (CRL-1469, RRID:CVCL_0480), OVCAR-5 ovarian carcinoma (RRID:CVCL_1628), OVCAR-8 ovarian carcinoma (RRID:CVCL_1629), , MCF-7 breast carcinoma (CRL-12584, RRID:CVCL_0031), MDA-MB-231 breast carcinoma (CRL-12532, RRID:CVCL_0062), NCI-H1876 small cell lung carcinoma (CRL-5902, RRID:CVCL_1503), NCI-H510A small cell lung carcinoma (HTB-184, RRID:CVCL_1565), NCI-H1417 (CRL-5869, RRID:CVCL_1469), and NCI-H196 small cell lung carcinoma (CRL-5823, RRID:CVCL_1509). Dr. Peter Houghton (Greehey Children's Cancer Research Institute, University of Texas Health Science Center, San Antonio, TX) provided Rh-18 rhabdomyosarcoma (RRID:CVCL_1659). Pooled donor human umbilical vein endothelial cells (HUVEC, Lonza, cat. CC-2519) and human mesenchymal stem cells (hMSC, Lonza, cat. PT-2501) were purchased from Lonza (Walkersville, MD).
Cell Culture. […]
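Note: spheroids exposed to compounds for seven days.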
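Throughout, for viability, T/C: 100% = DMSO vehicle control wells.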

Work on `O=C(c1cc(Cc2n[nH]c(=O)c3ccccc23)ccc1F)N1CCN(C(=O)C2CC2)CC1` + Cc1c(S(C)(=O)=O)c(-c2cc(F)cc(N3CCN(c4ccc(NS(=O)(=O)c5ccc(NC(CCN6CCC(C(=O)OCCCP(=O)(O)O)CC6)CSc6ccccc6)c(S(=O)(=O)C(F)(F)F)c5)cc4)CC3)c2)c(-c2ccc(Cl)cc2)n1C(C)C yielded an IC50 (second compound 0.1 µM) of 4.75 µM, an IC50 (second compound 0.316 µM) of 4.35 µM and an IC50 (second compound 1 µM) of 3.76 µM. For the same molecule, the IC50 (second compound 3.16 µM) was 3.67 µM, the IC50 (second compound 10 µM) was 3.29 µM and the viability, T/C (second compound 0.1 µM, first compound 0.0316 µM) was 90.8%. For the same molecule, the viability, T/C (second compound 0.1 µM, first compound 0.1 µM) was 105%, the viability, T/C (second compound 0.1 µM, first compound 0.316 µM) was 95.5% and the viability, T/C (second compound 0.1 µM, first compound 1 µM) was 91%. The viability, T/C (second compound 0.1 µM, first compound 3.16 µM) was 67.9%, the viability, T/C (second compound 0.1 µM, first compound 10 µM) was 17.4% and the viability, T/C (second compound 0.316 µM, first compound 0.0316 µM) was 96.4%. It also gave a viability, T/C (second compound 0.316 µM, first compound 0.1 µM) of 96.7%, a viability, T/C (second compound 0.316 µM, first compound 0.316 µM) of 104% and a viability, T/C (second compound 0.316 µM, first compound 1 µM) of 96.6%. It also gave a viability, T/C (second compound 0.316 µM, first compound 3.16 µM) of 64.2%, a viability, T/C (second compound 0.316 µM, first compound 10 µM) of 13.1% and a viability, T/C (second compound 1 µM, first compound 0.0316 µM) of 83.3%. For the same molecule, the viability, T/C (second compound 1 µM, first compound 0.1 µM) was 98.8%, the viability, T/C (second compound 1 µM, first compound 0.316 µM) was 104% and the viability, T/C (second compound 1 µM, first compound 1 µM) was 92%. It also gave a viability, T/C (second compound 1 µM, first compound 3.16 µM) of 56.8%, a viability, T/C (second compound 1 µM, first compound 10 µM) of 11.7% and a viability, T/C (second compound 3.16 µM, first compound 0.0316 µM) of 101%. For the same molecule, the viability, T/C (second compound 3.16 µM, first compound 0.1 µM) was 106%, the viability, T/C (second compound 3.16 µM, first compound 0.316 µM) was 99% and the viability, T/C (second compound 3.16 µM, first compound 1 µM) was 88.1%. For the same molecule, the viability, T/C (second compound 3.16 µM, first compound 3.16 µM) was 55.7%, the viability, T/C (second compound 3.16 µM, first compound 10 µM) was 11.7% and the viability, T/C (second compound 10 µM, first compound 0.0316 µM) was 125%. The viability, T/C (second compound 10 µM, first compound 0.1 µM) was 113%, the viability, T/C (second compound 10 µM, first compound 0.316 µM) was 97.5% and the viability, T/C (second compound 10 µM, first compound 1 µM) was 90.3%. The viability, T/C (second compound 10 µM, first compound 3.16 µM) was 47.5% and the viability, T/C (second compound 10 µM, first compound 10 µM) was 9.81%.
Molecule `O=C(c1cc(Cc2n[nH]c(=O)c3ccccc23)ccc1F)N1CCN(C(=O)C2CC2)CC1` + CCN1C(C(=O)NC23CCC(C(=O)O)(CC2)CC3)C(c2cccc(Cl)c2F)C2(C(=O)Nc3cc(Cl)ccc32)C12CCCCC2 has an IC50 (second compound 0.03 µM) of 4.71 µM, an IC50 (second compound 0.0949 µM) of 5.65 µM and an IC50 (second compound 0.3 µM) of 5.14 µM. The IC50 (second compound 0.949 µM) was 5.09 µM, the IC50 (second compound 3 µM) was under 0.0316 µM and the viability, T/C (second compound 0.03 µM, first compound 0.0316 µM) was 80.5%. It also gave a viability, T/C (second compound 0.03 µM, first compound 0.1 µM) of 118%, a viability, T/C (second compound 0.03 µM, first compound 0.316 µM) of 116% and a viability, T/C (second compound 0.03 µM, first compound 1 µM) of 92.7%. It also gave a viability, T/C (second compound 0.03 µM, first compound 3.16 µM) of 67.7%, a viability, T/C (second compound 0.03 µM, first compound 10 µM) of 17.6% and a viability, T/C (second compound 0.0949 µM, first compound 0.0316 µM) of 98.8%. It also gave a viability, T/C (second compound 0.0949 µM, first compound 0.1 µM) of 116%, a viability, T/C (second compound 0.0949 µM, first compound 0.316 µM) of 107% and a viability, T/C (second compound 0.0949 µM, first compound 1 µM) of 90.2%. The viability, T/C (second compound 0.0949 µM, first compound 3.16 µM) was 79.5%, the viability, T/C (second compound 0.0949 µM, first compound 10 µM) was 22.9% and the viability, T/C (second compound 0.3 µM, first compound 0.0316 µM) was 93.3%. The viability, T/C (second compound 0.3 µM, first compound 0.1 µM) was 97.8%, the viability, T/C (second compound 0.3 µM, first compound 0.316 µM) was 89.9% and the viability, T/C (second compound 0.3 µM, first compound 1 µM) was 98.1%. For the same molecule, the viability, T/C (second compound 0.3 µM, first compound 3.16 µM) was 69.5%, the viability, T/C (second compound 0.3 µM, first compound 10 µM) was 23.6% and the viability, T/C (second compound 0.949 µM, first compound 0.0316 µM) was 72%. The viability, T/C (second compound 0.949 µM, first compound 0.1 µM) was 81.1%, the viability, T/C (second compound 0.949 µM, first compound 0.316 µM) was 76% and the viability, T/C (second compound 0.949 µM, first compound 1 µM) was 77.1%. The viability, T/C (second compound 0.949 µM, first compound 3.16 µM) was 66.8%, the viability, T/C (second compound 0.949 µM, first compound 10 µM) was 25.3% and the viability, T/C (second compound 3 µM, first compound 0.0316 µM) was 45.1%. The viability, T/C (second compound 3 µM, first compound 0.1 µM) was 54.7%, the viability, T/C (second compound 3 µM, first compound 0.316 µM) was 42.6% and the viability, T/C (second compound 3 µM, first compound 1 µM) was 47.8%. It also gave a viability, T/C (second compound 3 µM, first compound 3.16 µM) of 47.2% and a viability, T/C (second compound 3 µM, first compound 10 µM) of 23.5%.

— PubChem BioAssay AID1963447 (Molecular Pharmacology Branch, DTP, NCI, 2024)
